Source: patent publication US8901072B2, “Glycopeptide and lipoglycopeptide antibiotics with improved solubility” (The Medicines Company, priority 2009, dated 2014)
≈ marks a conversion by molar mass, not a printed value.

Tests used:
[1] = Solubility in phosphate buffered saline; assay type: physicochemical; conditions: 10 mM phosphate buffered saline (0.138 M NaCl, 2.7 mM KCl), pH 7.4
Method: To a sample of the material of known mass were added known volumes of phosphate buffered saline until complete dissolution is observed. Suspensions were centrifuged for 5 min at 10000 rpm. […] Upon complete dissolution, the solution is diluted until the final concentration is 0.5 mg/mL to ensure that the material remains soluble over the entire range of concentrations.

[2] = test system: S. aureus ATCC 13709; assay: In vitro antibacterial susceptibility (MIC, broth microdilution); assay type: cell-based; conditions: for MIC against S. aureus ATCC 13709, CAMHB: cation-adjusted Mueller-Hinton broth, 37° C., 18 h; for Antibacterial activity compared with oritavancin 5: deduced from the MIC data of Table 2
Method: Susceptibility of S. aureus strain ATCC13709 to oritavancin (5) and synthesized compounds was determined following the guidelines set by the Clinical and Laboratory Standards Institute (formerly the National Committee for Clinical Laboratory Standards) (M26-A). Compounds were serially diluted two-fold in either DMSO (Oritavancin 5) or in PBS and transferred to cation-adjusted Mueller Hinton broth (CAMHB; Becton Dickinson). 50 μL of compounds diluted in CAMHB was mixed with 100 μL of bacteria diluted in CAMHB in 96-well microtiter plates. The final number of micro-organisms in the assay was 5×10^5 c.f.u. per mL and the final concentration of DMSO in the assay, if present, was 1.25%. All solutions may contain 0.002% Tween as indicated. Assays were set up in duplicate and incubated at 37° C. for 18 h. The concentration of compound that inhibited visible growth was reported as the minimum inhibitory concentration (MIC).

SMILES	Solubility (mg/mL) PBS [1]	MIC against S. aureus ATCC 13709, CAMHB + 0.002% tween [2]	MIC against S. aureus ATCC 13709, CAMHB + 50% human serum [2]	MIC against S. aureus ATCC 13709, CAMHB + 50% mouse serum [2]	MIC against S. aureus ATCC 13709, CAMHB + 50% rat serum [2]	MIC against S. aureus ATCC 13709, CAMHB [2]	Antibacterial activity compared with oritavancin 5 [2]
CC(C)CC(C(=O)NC1C(=O)NC(CC(N)=O)C(=O)NC2C(=O)NC3C(=O)NC(C(=O)NC(C(=O)O)c4cc(O)cc(O)c4-c4cc3ccc4O)C(OC3CC(C)(N)C(O)C(C)O3)c3ccc(c(Cl)c3)Oc3cc2cc(c3OC2OC(CO)C(O)C(O)C2OC2CC(C)(NCc3ccc(-c4ccc(Cl)cc4)cc3)C(O)C(C)O2)Oc2ccc(cc2Cl)C1O)N(C)C(=O)OCOC(=O)CCC(=O)O (stereo not shown) [Compound 7]	<0.5 mg/mL	0.125 µg/mL	0.5 µg/mL	0.5 µg/mL	0.25 µg/mL	2 µg/mL (≈ 1.02 µM)	within an order of magnitude of that of oritavancin 5
CNC(CC(C)C)C(=O)NC1C(=O)NC(CC(N)=O)C(=O)NC2C(=O)NC3C(=O)NC(C(=O)NC(C(=O)OCC(=O)NCCCCN)c4cc(O)cc(O)c4-c4cc3ccc4O)C(OC3CC(C)(N)C(O)C(C)O3)c3ccc(c(Cl)c3)Oc3cc2cc(c3OC2OC(CO)C(O)C(O)C2OC2CC(C)(NCc3ccc(-c4ccc(Cl)cc4)cc3)C(O)C(C)O2)Oc2ccc(cc2Cl)C1O (stereo not shown) [Compound 90c]	<1.6 mg/mL	0.25 µg/mL	0.125 µg/mL	0.5 µg/mL	–	1 µg/mL (≈ 0.52 µM)	within an order of magnitude of that of oritavancin 5
CC(C)CC(C(=O)NC1C(=O)NC(CC(N)=O)C(=O)NC2C(=O)NC3C(=O)NC(C(=O)NC(C(=O)O)c4cc(O)cc(O)c4-c4cc3ccc4O)C(OC3CC(C)(N)C(O)C(C)O3)c3ccc(c(Cl)c3)Oc3cc2cc(c3OC2OC(CO)C(O)C(O)C2OC2CC(C)(NCc3ccc(-c4ccc(Cl)cc4)cc3)C(O)C(C)O2)Oc2ccc(cc2Cl)C1O)N(C)C(=O)OCOC(=O)CCC(=O)N(CC(=O)O)CC(=O)O (stereo not shown) [Compound 20]	5.5 mg/mL (≈ 2640 µM)	4 µg/mL	16 µg/mL	16 µg/mL	2 µg/mL	4 µg/mL (≈ 1.92 µM)	weaker activities
CC(C)CC(C(=O)NC1C(=O)NC(CC(N)=O)C(=O)NC2C(=O)NC3C(=O)NC(C(=O)NC(C(=O)O)c4cc(O)cc(O)c4-c4cc3ccc4O)C(OC3CC(C)(N)C(O)C(C)O3)c3ccc(c(Cl)c3)Oc3cc2cc(c3OC2OC(CO)C(O)C(O)C2OC2CC(C)(NCc3ccc(-c4ccc(Cl)cc4)cc3)C(O)C(C)O2)Oc2ccc(cc2Cl)C1O)N(C)C(=O)OCc1ccc(OP(=O)(O)O)cc1 (stereo not shown) [Compound 70]	8 mg/mL (≈ 3950 µM)	1 µg/mL	32 µg/mL	32 µg/mL	>32 µg/mL	2 µg/mL (≈ 0.989 µM)	weaker activities
CNC(CC(C)C)C(=O)NC1C(=O)NC(CC(N)=O)C(=O)NC2C(=O)NC3C(=O)NC(C(=O)NC(C(=O)OCC(=O)N(C)CCN(C)C)c4cc(O)cc(O)c4-c4cc3ccc4O)C(OC3CC(C)(N)C(O)C(C)O3)c3ccc(c(Cl)c3)Oc3cc2cc(c3OC2OC(CO)C(O)C(O)C2OC2CC(C)(NCc3ccc(-c4ccc(Cl)cc4)cc3)C(O)C(C)O2)Oc2ccc(cc2Cl)C1O (stereo not shown) [Compound 103]	≧100 mg/mL	0.25 µg/mL	0.25 µg/mL	0.5 µg/mL	0.125 µg/mL	2 µg/mL (≈ 1.03 µM)	within an order of magnitude of that of oritavancin 5
